Laboratory results as given in patent US8076061B2, “Method and composition for cancer diagnosis and treatment” (Ascentgene, Inc., priority 2007, dated 2011).

Tests used:
[1] = tested on: PC4-dependent transcription (template pG5HM); experiment: In vitro transcription assay reconstituted with purified general transcription factors; format: biochemical
Source text: FIGS. 3A, 3B and 3C show the functional analyses of PC4 mutations in different assays.
In vitro transcription assay was reconstituted with purified general transcription factors, including TFIIA, TFIIB, TFIID, TFIIF, TFIIH and RNA polymerase II, either purified from HeLa cells or from a recombinant source. This system can be activated in a PC4 and activator-dependent manner. In addition to the transcription factors, the system also contained one activator-responsive template, a basic template (activator-independent), and ^32P-CTP. After incubation at 30° C. for 1 hr, the newly synthesized RNAs were extracted and analyzed on a denatured polyacrylamide gel and visualized by autoradiography.

PC4 = PC4 (Homo sapiens, UniProt P53999); experiment: Interaction of AH peptide with PC4; format: binding; details: 15 amino acid peptide
[2] = tested on: 64 bp dsDNA probe from the adeno major late promoter region; experiment: Electrophoresis mobility shift assay (EMSA), DNA binding activity of PC4 proteins; details: purified recombinant PC4 mutant vs wild type, FIG. 3B
Experimental: EMSA was used to determine the ds-DNA binding activity of PC4 protein and was performed in a 20 ul of reaction containing […] of purified PC4 protein and ^32P-labeled 64 bp dsDNA probe from the adeno major late promoter region. After incubated at 4° C. for 1 hr, the reaction mixture was analyzed on an 8% polyacrylamide gel. The mobilized PC4-dsDNA complex was visualized using autoradiography.

ssDNA = experiment: Protein array assay (UPA), protein-DNA interaction; format: binding; details: FIG. 4F
Experimental: (§1) The protein array assay is based on the “Universal Protein Array” method, also called UPA [Ge, H. (2000) UPA, a universal protein array system for quantitative detection of protein-protein, protein-DNA, protein-RNA and protein-ligand interactions. Nucleic Acids Res. 28, e3]. Purified proteins were validated, normalized and arrayed on a nitrocellulose sheet. Each spot was arrayed in 1 mm diameter containing 10-100 ng of protein depending on size. Targeted proteins that interacted with the PC4 proteins on the array were detected by specific antibodies such as antibodies against transcription factor TFIIA, Gal4, or Sp1. For protein-DNA interaction, probe DNA was labeled with ^32P-dCTP and the bound DNA was monitored by autoradiography.

[3] = target: T1, transcription factor TFIIA (Homo sapiens, UniProt P52655+P52657); experiment: Protein array assay (UPA), interaction with TFIIA; format: binding; details: FIG. 4C
T1 sequence (P52655 1-376): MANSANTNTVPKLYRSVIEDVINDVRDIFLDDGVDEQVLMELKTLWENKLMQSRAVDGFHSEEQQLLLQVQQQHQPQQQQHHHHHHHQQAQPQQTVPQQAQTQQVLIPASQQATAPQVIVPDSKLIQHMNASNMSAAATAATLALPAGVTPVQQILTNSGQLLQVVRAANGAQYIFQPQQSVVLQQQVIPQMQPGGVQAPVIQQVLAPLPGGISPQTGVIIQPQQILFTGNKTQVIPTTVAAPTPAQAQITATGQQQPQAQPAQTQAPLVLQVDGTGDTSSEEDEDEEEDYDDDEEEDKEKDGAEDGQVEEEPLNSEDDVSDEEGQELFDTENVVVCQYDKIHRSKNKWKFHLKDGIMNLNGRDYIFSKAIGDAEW
T1 sequence (P52657 1-109): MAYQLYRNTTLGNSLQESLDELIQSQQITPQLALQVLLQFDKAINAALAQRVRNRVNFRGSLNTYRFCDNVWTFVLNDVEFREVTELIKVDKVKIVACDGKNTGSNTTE
Experimental: as §1

[4] = tested on: transcription factor Sp1 (Gal4-Sp1 fusion protein); experiment: Protein array assay (UPA), interaction with Sp1; format: binding; details: FIG. 4E
Experimental: as §1

Substance	transcription activation, PC4-dependent ([1]; AH fused with a Gal4 DNA binding domain)	interaction with PC4 (mimics an activation domain) (PC4)	PC4's DNA binding activity [2]	PC4 transcription activity ([1]; purified recombinant PC4 mutant vs wild type, FIG. 3C)	ssDNA binding activity of PC4 (ssDNA)	interaction of PC4 with TFIIA [3]	interaction of PC4 with Sp1 [4]
ELQEL′QELQALLQQQ (ELQELQELQALLQQQ; AH15)	dramatic transcription activation	interacting strongly					
F77P: recombinant human PC4 protein with single amino acid change F77P			abolishes	abolishes	critical for the ssDNA binding activity	enhances	enhances
